In US8445503B2, “Inhibitors of polo-like kinase” (Elan Pharmaceuticals, Inc., priority 2009, dated 2013):
pIC50: −log10 of the molar value. Where two headings read alike, the source gives them in different places.

What was measured:
Assay type in all cases: biochemical
[1] = target: GST-PLK1 (Homo sapiens, UniProt P53350); test: PLK TR-FRET peptide assay, PLK1; conditions: read-out: Plk1 IC50
[2] = target: T1, GST-PLK2 (Homo sapiens, UniProt Q9NYY3); test: PLK TR-FRET peptide assay, PLK2; conditions: for pIC50: PLK TR-FRET peptide assay, GST-PLK2, read-out: Plk2 IC50; for PLK2 activity relative to the opposite enantiomer / other isomer: comparison of resolved enantiomers, used to assign absolute configuration
T1 construct: purchased CarnaBio
T1 sequence (Q9NYY3 whole entry): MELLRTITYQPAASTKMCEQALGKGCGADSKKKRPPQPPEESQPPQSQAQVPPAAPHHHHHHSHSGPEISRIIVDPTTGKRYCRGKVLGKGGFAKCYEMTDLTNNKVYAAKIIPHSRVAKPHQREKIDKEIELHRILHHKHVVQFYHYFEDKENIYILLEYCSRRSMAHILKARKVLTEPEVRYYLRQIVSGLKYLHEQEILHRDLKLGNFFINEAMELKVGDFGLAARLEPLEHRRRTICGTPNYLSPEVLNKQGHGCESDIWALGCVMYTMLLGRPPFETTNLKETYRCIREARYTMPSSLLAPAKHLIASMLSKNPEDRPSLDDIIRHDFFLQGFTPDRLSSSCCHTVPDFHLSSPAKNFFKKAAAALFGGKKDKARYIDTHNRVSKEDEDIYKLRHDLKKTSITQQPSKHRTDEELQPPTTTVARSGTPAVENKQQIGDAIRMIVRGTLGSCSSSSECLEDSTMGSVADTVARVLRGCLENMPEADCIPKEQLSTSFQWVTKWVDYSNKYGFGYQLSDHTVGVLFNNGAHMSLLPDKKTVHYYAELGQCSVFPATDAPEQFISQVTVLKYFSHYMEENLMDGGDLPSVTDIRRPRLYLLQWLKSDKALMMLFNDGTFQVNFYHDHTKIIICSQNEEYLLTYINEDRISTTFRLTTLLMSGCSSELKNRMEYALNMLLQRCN

[3] = target: T2, GST-PLK3 (Homo sapiens, UniProt Q9H4B4); test: PLK TR-FRET peptide assay, PLK3; conditions: read-out: Plk3 IC50
T2 construct: purchased CarnaBio
T2 sequence (Q9H4B4 whole entry): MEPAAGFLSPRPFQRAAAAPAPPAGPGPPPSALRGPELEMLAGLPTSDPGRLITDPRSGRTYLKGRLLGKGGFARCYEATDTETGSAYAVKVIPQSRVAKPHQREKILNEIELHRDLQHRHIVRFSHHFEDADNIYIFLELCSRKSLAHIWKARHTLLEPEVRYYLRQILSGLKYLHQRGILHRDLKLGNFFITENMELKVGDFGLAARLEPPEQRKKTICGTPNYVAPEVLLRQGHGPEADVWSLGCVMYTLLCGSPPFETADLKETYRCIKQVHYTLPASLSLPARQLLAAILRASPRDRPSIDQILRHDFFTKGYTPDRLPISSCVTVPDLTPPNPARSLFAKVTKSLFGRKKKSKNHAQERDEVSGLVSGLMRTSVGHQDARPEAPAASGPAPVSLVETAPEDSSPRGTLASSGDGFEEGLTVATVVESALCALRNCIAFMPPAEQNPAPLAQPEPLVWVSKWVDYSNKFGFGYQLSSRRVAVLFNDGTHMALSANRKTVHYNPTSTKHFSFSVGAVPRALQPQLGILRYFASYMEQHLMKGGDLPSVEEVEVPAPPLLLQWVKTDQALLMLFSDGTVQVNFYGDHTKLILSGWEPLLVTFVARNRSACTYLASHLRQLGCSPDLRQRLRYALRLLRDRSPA

[4] = PLK TR-FRET peptide assay, GST-PLK3

Chain of GST-PLK1 (P53350 whole entry): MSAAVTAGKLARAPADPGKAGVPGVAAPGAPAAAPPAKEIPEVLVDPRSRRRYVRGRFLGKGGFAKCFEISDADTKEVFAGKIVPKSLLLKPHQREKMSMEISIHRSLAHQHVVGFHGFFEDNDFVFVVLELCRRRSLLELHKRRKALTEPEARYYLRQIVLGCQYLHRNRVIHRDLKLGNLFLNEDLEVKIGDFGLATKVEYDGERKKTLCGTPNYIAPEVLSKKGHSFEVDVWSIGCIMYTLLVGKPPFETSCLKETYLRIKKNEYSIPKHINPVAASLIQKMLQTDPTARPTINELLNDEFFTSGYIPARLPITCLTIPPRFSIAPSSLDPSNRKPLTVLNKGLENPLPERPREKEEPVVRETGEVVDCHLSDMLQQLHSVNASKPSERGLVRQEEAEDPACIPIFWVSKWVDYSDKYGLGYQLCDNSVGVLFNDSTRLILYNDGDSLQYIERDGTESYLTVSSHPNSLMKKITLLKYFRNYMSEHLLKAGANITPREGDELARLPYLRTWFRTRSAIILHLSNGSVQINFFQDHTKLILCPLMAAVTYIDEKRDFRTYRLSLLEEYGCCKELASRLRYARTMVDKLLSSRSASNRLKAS

pIC50 [1] | pIC50 [2] | pIC50 [3, 4] | PLK2 activity relative to the opposite enantiomer / other isomer [2] | SMILES | pIC50 [3]
< 4.30 | > 6.00 | 4.30 to 5.00 | more active compound | CC[C@@]12CN(C)CCN1c1nc(-n3ccnc3-c3ccccc3)ncc1N(C)C2=O [Example 374, (S)-6a-ethyl-5,8-dimethyl-2-(2-phenyl-1H-imidazol-1-yl)-'7,8,9,10-tetrahydro-5H-pyrazino[2,1-h]pteridin-6(6aH)-one] | 
4.30 to 5.00 | > 6.00 | 4.30 to 5.00 | more active compound | CC[C@@]12COCCN1c1nc(-c3snnc3-c3ccc(F)cc3F)ncc1N(C)C2=O [Example 397, (S)-2-(4-(2,4-difluorophenyl)-1,2,3-thiadiazol-5-yl)-6a-ethyl-5-methyl-6a,7,9,10-tetrahydro-[1,4]oxazino[3,4-h]pteridin-6(5H)-one] | 
4.30 to 5.00 | > 6.00 | 4.30 to 5.00 |  | CCC1C(=O)N(C)c2cnc(-n3ccnc3-c3ccccc3)nc2N1N (centres unmarked) [Example 278, 8-amino-7-ethyl-5-methyl-2-(2-phenyl-1H-imidazol-1-yl)-7,8-dihydropteridin-6(5H)-one] | 
 |  | 4.30 to 5.00 |  | CN1C(=O)C(CC(F)(F)F)N(CCC(F)(F)F)c2nc(-n3ccnc3-c3ccc(F)cc3)ncc21 (centres unmarked) [Example 255] | 
> 6.00 | > 6.00 | > 6.00 |  | CC[C@@H]1C(=O)N(C)c2cnc(-c3sc(N)nc3-c3ccc(F)cc3)nc2N1C(C)C [Example 318, (R)-2-(2-amino-4-(4-fluorophenyl)thiazol-5-yl)-7-ethyl-8-isopropyl-5-methyl-7,8-dihydropteridin-6(5H)-one] | 
5.00 to 6.00 | > 6.00 | 5.00 to 6.00 |  | CCC1C(=O)N(C)c2cnc(-c3cn[nH]c3-c3nccs3)nc2N1c1cnn(CC2CC2)c1 (centres unmarked) [Example 400, 8-(1-(cyclopropylmethyl)-1H-pyrazol-4-yl)-7-ethyl-5-methyl-2-(5-(thiazol-2-yl)-1H-pyrazol-4-yl)-7,8-dihydropteridin-6(5H)-one] | 
> 6.00 | > 6.00 | > 6.00 |  | CCC1C(=O)N(C)c2cnc(-c3c[nH]nc3-c3ccc(F)cc3F)nc2N1c1ccn(C)n1 (centres unmarked) [Example 420, 2-(3-(2,4-difluorophenyl)-1H-pyrazol-4-yl)-7-ethyl-5-methyl-8-(1-methyl-1H-pyrazol-3-yl)-7,8-dihydropteridin-6(5H)-one] | 
 |  | 4.30 to 5.00 |  | CC[C@@H]1C(=O)N(C)c2cnc(-n3ccnc3-c3ccc(F)cc3)nc2N1C1CC(F)(F)C1 [Example 247] | 
 | > 6.00 |  |  | CC[C@@]12CCCN1c1nc(-n3ccnc3-c3cccc(Br)c3)ncc1N(C)C2=O [Example 252] | 
 |  |  | more active compound | CC[C@@]12COCCN1c1nc(-n3ccnc3-c3ccccc3)ncc1NC2=O [Example 418, (S)-6a-ethyl-2-(2-phenyl-1H-imidazol-1-yl)-6a,7,9,10-tetrahydro-[1,4]oxazino[3,4-h]pteridin-6(5H)-one] | 
 |  | 5.00 to 6.00 |  | CCC1C(=O)N(C)c2cnc(-n3ccnc3-c3ccc(F)cc3)nc2N1c1ccc(F)cc1 (centres unmarked) [Example 324] | 
 |  | < 4.30 |  | CC[C@@H]1C(=O)N(C)c2cnc(-n3ccc4ccccc43)nc2N1C1CCCC1 [Example 385] | 

The remaining lines, values behind:

SMILES | pIC50 [1] | pIC50 [2] | pIC50 [3, 4] | PLK2 activity relative to the opposite enantiomer / other isomer [2] | pIC50 [3]
CC[C@@H]1C(=O)N(C)c2cnc(-n3ccnc3-c3ccc(S(C)(=O)=O)cc3)nc2N1C1CCCC1 [Example 79, (R)-8-cyclopentyl-7-ethyl-5-methyl-2-(2-(4-(methylsulfonyl)phenyl)-1H-imidazol-1-yl)-7,8-dihydropteridin-6(5H)-one] | 5.00 to 6.00 | > 6.00 | 4.30 to 5.00 |  | 
CC[C@@H]1C(=O)N(C)c2cnc(-n3ccnc3-c3ccc(F)cc3)nc2N1C1CCC(F)(F)C1 (some centres unmarked) [Example 242] |  |  | 5.00 to 6.00 |  | 
CC[C@@H]1C(=O)N(C)c2cnc(-c3n[nH]cc3-c3ccccc3)nc2N1C1CCCC1 [Example 245, (R)-8-cyclopentyl-7-ethyl-5-methyl-2-(4-phenyl-1H-pyrazol-3-yl)-7,8-dihydropteridin-6(5H)-one] | > 6.00 | > 6.00 | 5.00 to 6.00 |  | 
CC[C@@H]1C(=O)N(C)c2cnc(-n3cnc(-c4cscn4)c3)nc2N1C1CCCC1 [Example 54, (R)-8-cyclopentyl-7-ethyl-5-methyl-2-(4-(thiazol-4-yl)-1H-imidazol-1-yl)-7,8-dihydropteridin-6(5H)-one] | > 6.00 | > 6.00 | 5.00 to 6.00 |  | 
CC[C@@H]1C(=O)N(C)c2cnc(-c3ccncc3)nc2N1C1CCC1 [Example 109, (R)-8-cyclobutyl-7-ethyl-5-methyl-2-(pyridin-4-yl)-7,8-dihydropteridin-6(5H)-one] | 5.00 to 6.00 | > 6.00 | 4.30 to 5.00 |  | 
CC[C@@H]1C(=O)N(C)c2cnc(-n3ccc(=N)cc3)nc2N1C1CCCC1 [Example 73, (R)-8-cyclopentyl-7-ethyl-2-(4-iminopyridin-1(4H)-yl)-5-methyl-7,8-dihydropteridin-6(5H)-one] | 4.30 to 5.00 | 5.00 to 6.00 | < 4.30 |  | 
CC[C@@H]1C(=O)N(C)c2cnc(-c3ccncc3-c3ccccc3)nc2N1C(C)C [Example 110, (R)-7-ethyl-8-isopropyl-5-methyl-2-(3-phenylpyridin-4-yl)-7,8-dihydropteridin-6(5H)-one] | > 6.00 | > 6.00 | > 6.00 |  | 
CC[C@@H]1C(=O)N(C)c2cnc(N3CCN=C3c3ccccc3)nc2N1C(C)C [Example 246, (R)-7-ethyl-8-isopropyl-5-methyl-2-(2-phenyl-4,5-dihydro-1H-imidazol-1-yl)-7,8-dihydropteridin-6(5H)-one] |  |  |  |  | 5.00 to 6.00
CC[C@@H]1C(=O)N(C)c2cnc(-n3ccnc3-c3ccccc3)nc2N1C1CCOC1 (some centres unmarked) [Example 203] |  |  | 5.00 to 6.00 |  | 
CC[C@@H]1C(=O)N(C)c2cnc(-c3ccnc(O)c3)nc2N1C1CCCC1 [Example 14, (R)-8-cyclopentyl-7-ethyl-2-(2-hydroxypyridin-4-yl)-5-methyl-7,8-dihydropteridin-6(5H)-one] | > 6.00 | > 6.00 |  |  | 
CC[C@@H]1C(=O)N(C)c2cnc(-n3ccnc3-c3ccccc3)nc2N1C1CCOC1 (some centres unmarked) [Example 182] |  |  | > 6.00 |  | 
CC[C@@H]1C(=O)N(C)c2cnc(-n3cc(C(=O)NC)cn3)nc2N1C1CCCC1 [Example 40, (R)-1-(8-cyclopentyl-7-ethyl-5-methyl-6-oxo-5,6,7,8-tetrahydropteridin-2-yl)-N-methyl-1H-pyrazole-4-carboxamide] | > 6.00 |  | 4.30 to 5.00 |  | 
CC[C@@H]1C(=O)N(C)c2cnc(-n3ccnc3-c3ccccc3)nc2N1CCC(F)(F)F [Example 190] |  |  | 5.00 to 6.00 |  | 
CC[C@@H]1C(=O)N(C)c2cnc(-c3cn[nH]c3-c3nccs3)nc2N1C1CCOCC1 [Example 349] |  |  | > 6.00 |  | 
CC[C@@H]1C(=O)N(C)c2cnc(-c3cn[nH]c3)nc2N1C1CCCC1 [Example 7, (R)-8-cyclopentyl-7-ethyl-5-methyl-2-(1H-pyrazol-4-yl)-7,8-dihydropteridin-6(5H)-one] | > 6.00 | > 6.00 |  |  | 
CC[C@@H]1C(=O)N(C)c2cnc(-c3cc[n+]([O-])cc3)nc2N1C1CCCC1 [Example 13, (R)-4-(8-cyclopentyl-7-ethyl-5-methyl-6-oxo-5,6,7,8-tetrahydropteridin-2-yl)pyridine 1-oxide] | 5.00 to 6.00 | 5.00 to 6.00 |  |  | 
CC[C@@H]1C(=O)N(C)c2cnc(-n3ccnc3-c3ccc(F)cc3)nc2N1CCC(F)(F)F [Example 233] |  |  | 4.30 to 5.00 |  | 
